Laboratory results published in ChEMBL document CHEMBL4184116, “New butenolide derivatives from the marine sponge-derived fungus Aspergillus terreus” (Bioorg Med Chem Lett, 2018).
pIC50: −log10 of the molar value.

Key:
Alpha glucosidase = Alpha glucosidase (Homo sapiens, UniProt O43451+P10253+P14410+Q2M2H8); assay: Inhibition of alpha-glucosidase (unknown origin) using p-nitro-phenyl-alpha-D-glucopyranoside as substrate preincubated for 5 mins with substrate followed by enzyme addition measure after 15 mins by spectrophotometric method; assay type: protein assay
[1] = Antioxidant activity assessed as DPPH radical scavenging activity incubated for 30 mins under dark condition by spectrophotometric analysis; assay type: functional
[2] = Antioxidant activity assessed as DPPH radical scavenging activity incubated for 30 mins under dark condition; assay type: functional

Row | SMILES | IC50 (Alpha glucosidase) | pIC50 [1] | pIC50 [2]
1 | COC(=O)[C@]1(Cc2ccc(O)cc2)OC(=O)C(O)=C1c1ccc(O)cc1 | 85.13 µM | 4.07 | –
2 | COC(=O)[C@]1(Cc2ccc3c(c2)CCC(C)(C)O3)OC(=O)C(O)=C1c1ccc(O)cc1 | 47.33 µM | 4.01 | –
3 | COC(=O)[C@@]1(O)OC(=O)C(Cc2ccc3c(c2)CCC(C)(C)O3)=C1c1ccc(O)cc1 | 10.3 µM | < 3.70 | –
4 | CO[C@@H]1OC(=O)C(Cc2ccc(O)c(CC=C(C)C)c2)=C1c1ccc(O)cc1 | 9.98 µM | < 3.70 | –
5 | COC(=O)[C@]1(Cc2ccc3c(c2)C[C@H](O)C(C)(C)O3)OC(=O)C(OC)=C1c1ccc(O)cc1 | – | – | < 3.30
6 | COC(=O)[C@]1(Cc2ccc3c(c2)C[C@@H](O)C(C)(C)O3)OC(=O)C(O)=C1c1ccc(O)cc1 | 110.27 µM | 3.87 | –
7 | CC1(C)CCc2cc(CC3=C(c4ccc(O)cc4)C(O)OC3=O)ccc2O1 (configuration not stated) | 13.36 µM | < 3.70 | –
8 | CC(=O)N[C@@H](CS)C(=O)O [ACETYLCYSTEINE] | – | 4.07 | –
9 | O=C1O/C(=C\c2ccc(O)cc2)C(O)=C1c1ccc(O)cc1 [ASPULVINONE E] | > 400 µM | 3.97 | –
10 | COC(=O)[C@]1(Cc2ccc3c(c2)C[C@H](C(C)(C)O)O3)OC(=O)C(O)=C1c1ccc(O)cc1 [BUTYROLACTONE IV] | > 400 µM | 3.89 | –

Further lines, results first:

Row | IC50 (Alpha glucosidase) | pIC50 [1] | pIC50 [2] | SMILES
11 | 7.63 µM | < 3.70 | – | CC1(C)CCc2cc(CC3=C(c4ccc(O)cc4)[C@@](O)(C(=O)O)OC3=O)ccc2O1
12 | 11.65 µM | 4.05 | – | CC1(C)CCc2cc(CC3OC(=O)C(O)=C3c3ccc(O)cc3)ccc2O1 (configuration not stated)
13 | – | – | 3.90 | COC(=O)[C@]1(Cc2ccc(O)c(CC=C(C)C)c2)OC(=O)C(OC)=C1c1ccc(O)cc1
14 | 8.65 µM | < 3.70 | – | CO[C@H]1OC(=O)C(Cc2ccc(O)c(CC=C(C)C)c2)=C1c1ccc(O)cc1
15 | 14.18 µM | 4.42 | – | COC(=O)[C@]1(Cc2ccc(O)c(CC=C(C)C)c2)OC(=O)C(O)=C1c1ccc(O)cc1
